Source: patent US20230339889A1, “DERIVATIVES OF 2-OXO-N-(4-(PYRIMIDIN-4-YLOXY/THIO)PHENYL)-1,2-DIHYDROPYRIDINE-3-CARBOXAMIDE FOR USE AS PROTEIN KINASE INHIBITORS FOR THERAPY” (AUCENTRA THERAPEUTICS PTY LTD, priority 2020, published 2023)

Assays:
FLT3-ITD = experiment: ADP Glo Kinase assay; assay type: biochemical; settings: 1 µM compound
Procedure: (§1) Inhibition of CDKs and FLT3 were determined using ADP Glo Kinase assays, as previously described in International Patent Publication No WO 2017/020065.

CDK4D1 = CDK4D1 (Homo sapiens, UniProt P11802); experiment: ADP Glo Kinase assay; assay type: biochemical; settings: 1 µM compound; read-out: % Residual enzymatic activity at 1 µM CDK4D1
Sequence of CDK4D1 (P11802 whole entry): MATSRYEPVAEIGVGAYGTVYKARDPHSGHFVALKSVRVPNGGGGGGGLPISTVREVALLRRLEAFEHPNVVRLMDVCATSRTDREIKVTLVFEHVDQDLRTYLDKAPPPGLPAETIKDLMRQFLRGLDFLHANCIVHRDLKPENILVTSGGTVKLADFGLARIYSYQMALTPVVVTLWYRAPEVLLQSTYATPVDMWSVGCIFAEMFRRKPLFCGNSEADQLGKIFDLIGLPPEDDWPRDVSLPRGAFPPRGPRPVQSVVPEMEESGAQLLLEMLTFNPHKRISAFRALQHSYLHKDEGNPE
Sequence of CDK4D1 (P24385 whole entry partner): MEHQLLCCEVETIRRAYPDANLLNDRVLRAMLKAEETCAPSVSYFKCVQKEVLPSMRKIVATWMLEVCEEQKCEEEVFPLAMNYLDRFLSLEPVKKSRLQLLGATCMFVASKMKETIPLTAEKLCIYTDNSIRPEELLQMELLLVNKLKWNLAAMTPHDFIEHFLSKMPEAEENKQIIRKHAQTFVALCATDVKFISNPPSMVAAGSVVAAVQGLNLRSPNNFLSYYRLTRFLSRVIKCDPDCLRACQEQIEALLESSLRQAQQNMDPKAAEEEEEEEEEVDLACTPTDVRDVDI
Procedure: as §1

CDK2E = CDK2E (Homo sapiens, UniProt P24941); experiment: ADP Glo Kinase assay; assay type: biochemical; settings: 1 µM compound; read-out: % Residual enzymatic activity at 1 µM CDK2E
Procedure: as §1

TYRO3 = biological target: T1, TYRO3 (Homo sapiens, UniProt Q06418); experiment: Filter-binding radiometric kinase activity assay (KinaseProfiler, Eurofins); assay type: biochemical; settings: 1 µM compound; read-out: % Residual enzymatic activity at 1 µM TYRO3
T1 construct: purchased Eurofins Discovery (Kinase Profiler service)
T1 sequence (Q06418 41-890): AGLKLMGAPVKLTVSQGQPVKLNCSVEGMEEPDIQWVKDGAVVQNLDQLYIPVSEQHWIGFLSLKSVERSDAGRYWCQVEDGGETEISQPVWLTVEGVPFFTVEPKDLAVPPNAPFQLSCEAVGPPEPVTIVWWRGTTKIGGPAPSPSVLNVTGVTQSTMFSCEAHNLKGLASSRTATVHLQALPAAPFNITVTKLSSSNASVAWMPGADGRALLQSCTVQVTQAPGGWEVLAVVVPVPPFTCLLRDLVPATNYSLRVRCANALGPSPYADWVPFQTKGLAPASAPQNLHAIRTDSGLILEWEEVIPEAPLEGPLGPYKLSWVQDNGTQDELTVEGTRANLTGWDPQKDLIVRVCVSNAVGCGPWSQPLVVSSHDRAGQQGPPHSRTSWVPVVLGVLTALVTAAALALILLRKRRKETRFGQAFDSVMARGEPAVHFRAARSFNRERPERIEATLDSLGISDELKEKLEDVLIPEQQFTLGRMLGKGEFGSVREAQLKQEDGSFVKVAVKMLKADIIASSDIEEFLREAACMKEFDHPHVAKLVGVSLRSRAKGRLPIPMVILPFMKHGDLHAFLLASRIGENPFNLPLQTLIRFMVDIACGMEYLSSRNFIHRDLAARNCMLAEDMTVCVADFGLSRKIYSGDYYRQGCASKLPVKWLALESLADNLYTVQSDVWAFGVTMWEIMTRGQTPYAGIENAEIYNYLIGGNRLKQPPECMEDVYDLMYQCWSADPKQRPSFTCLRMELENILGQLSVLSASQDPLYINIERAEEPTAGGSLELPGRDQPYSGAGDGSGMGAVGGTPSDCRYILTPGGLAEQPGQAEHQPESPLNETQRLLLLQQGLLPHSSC

MDA-MB-231 = experiment: Proliferation assay (resazurin, solid tumour cell line); assay type: cell-based; settings: Homo sapiens; MDA-MB-231 cells
Source text: (§2) Compounds from Example 1 were subjected to standard resazurin and MTT assays on solid tumour and leukaemia cancer cell lines, respectively, as previously reported (Wang S et al., J Med Chem 47:1662-1675, 2004 and Diab S et al., CheMedChem 9:962-972, 2014).

MV4-11 = experiment: Proliferation assay (MTT, leukaemia cancer cell line); assay type: cell-based; settings: Homo sapiens; 1 µM compound, MV4-11 cells
Source text: as §2

Compound	% Residual enzymatic activity at 1 µM FLT3-ITD (FLT3-ITD)	remaining activity at 1 µM (CDK4D1)	remaining activity at 1 µM (CDK2E)	remaining activity at 1 µM (TYRO3)	GI50 (MDA-MB-231)	activity at 1 µM (MV4-11)
Nc1ncnc(Oc2ccc(NC(=O)c3cccn(-c4ccc(F)cc4)c3=O)cc2F)c1Cl [Cmpd 3, N-(4-((6-amino-5-chloropyrimidin-4-yl)oxy)-3-fluorophenyl)-1-(4-fluorophenyl)-2-oxo-1,2-dihydropyridine-3-carboxamide]	49%	69%	96%	0%	7.9 µM	3%
Nc1ncnc(Oc2ccc(NC(=O)c3cccn(-c4ccc(F)cc4)c3=O)c(F)c2)c1Cl [Cmpd 5, N-(4-((6-amino-5-chloropyrimidin-4-yl)oxy)-2-fluorophenyl)-1-(4-fluorophenyl)-2-oxo-1,2-dihydropyridine-3-carboxamide]	43%	72%	92%	2%	0.9 µM	6%
Nc1ncnc(Oc2ccc(NC(=O)c3cccn(-c4ccc(F)cc4)c3=O)cc2F)c1F [Cmpd 1, N-(4-((6-amino-5-fluoropyrimidin-4-yl)oxy)-3-fluorophenyl)-1-(4-fluorophenyl)-2-oxo-1,2-dihydropyridine-3-carboxamide]	50%	40%	99%	-1%	1.2 µM	3%
Nc1ncnc(Oc2ccc(NC(=O)c3cccn(-c4ccc(F)cc4)c3=O)c(F)c2)c1F [Cmpd 7, N-(4-((6-amino-5-fluoropyrimidin-4-yl)oxy)-2-fluorophenyl)-1-(4-fluorophenyl)-2-oxo-1,2-dihydropyridine-3-carboxamide]	40%	72%	80%	5%	2.3 µM	6%
Nc1ncnc(Oc2ccc(NC(=O)c3cccn(-c4ccc(F)cc4)c3=O)cc2)c1F [Cmpd 6, N-(4-((6-amino-5-fluoropyrimidin-4-yl)oxy)phenyl)-1-(4-fluorophenyl)-2-oxo-1,2-dihydropyridine-3-carboxamide]	79%	69%	89%	6%	8.9 µM	3%
Nc1ncnc(Oc2ccc(NC(=O)c3cccn(-c4ccc(F)cc4)c3=O)cc2)c1Cl [Cmpd 4, N-(4-((6-amino-5-chloropyrimidin-4-yl)oxy)phenyl)-1-(4-fluorophenyl)-2-oxo-1,2-dihydropyridine-3-carboxamide]	33%	48%	97%	2%	2.7 µM	6%
